# Measurements from US20230058623A1, “NOVEL HETEROARYL-TRIAZOLE COMPOUNDS AS PESTICIDES” (Bayer Aktiengesellschaft, priority 2019, published 2023).
# Tests used:
# Assay type in all cases: in vivo
# [1] = tested on: Rhipicephalus (Boophilus) microplus larvae (strain Parkhurst, resistant against synthetic pyrethroids); assay: Rhipicephalus (Boophilus) microplus in-vitro contact test, larval cattle tick; conditions: after 48 hours, read-out: activity (efficacy: larvae dead or moribund); for pest or weed control at 1 µg/cm2, 100 g/ha: application rate 1 μg/cm^2 (=100 g/ha); for pest or weed control at 5 µg/cm2, 500 g/ha: application rate 5 μg/cm^2 (=500 g/ha)
# Protocol: Rhipicephalus (Boophilus) microplus—In-Vitro Contact Tests Larval Cattle Tick (Strain Parkhurst, Resistant Against Synthetic Pyrethroids)
# (§1) 9 mg compound is solved in 1 ml acetone and diluted with acetone to the desired concentration. 250 μL of the test solution is filled in 25 mL glass test tubes and homogeneously distributed on the inner walls by rotation and tilting on a shaking device (2 h at 30 rpm). With a compound concentration of 900 ppm, an inner surface of 44.7 cm^2 and a homogeneous distribution, a dose of 5 μg/cm^2 is achieved.
# After the solvent has evaporated, each test tube is filled with 20-50 cattle tick larvae (Rhipicephalus microplus), closed with a perforated lid and incubated in a horizontal position at 85% relative humidity and 27° C. in an incubator. After 48 hours efficacy is determined. The larvae are patted on the ground of the tubes and negative geotactic behavior is recorded.
# An efficacy of 100% means all larvae are dead or moribund; 0% means no larvae are dead or moribund.
# [2] = tested on: adult engorged female ticks (Rhipicephalus microplus); assay: Rhipicephalus (Boophilus) microplus injection test; conditions: 168 h, application rate 4 μg/tick, egg deposition after 7 days, read-out: activity (efficacy: infertile eggs)
# Protocol: Rhipicephalus (Boophilus) microplus—Injection Test
# Solvent: dimethyl sulfoxide
# To produce a suitable preparation of active compound, 10 mg of active compound are dissolved in 0.5 mL solvent, and the concentrate is diluted with solvent to the desired concentration.
# Five adult engorged female ticks (Rhipicephalus microplus) are injected with 1 μL compound solution into the abdomen. The ticks are transferred into replica plates and incubated in a climate chamber.
# After 7 days egg deposition of fertile eggs is monitored. Eggs where fertility is not visible are stored in a climate chamber till hatching after about 42 days. An efficacy of 100% means all eggs are infertile; 0% means all eggs are fertile.
# [3] = tested on: adult brown dog ticks (Rhipicephalus sanguineus); assay: Rhipicephalus sanguineus in-vitro contact test, adult brown dog ticks; conditions: application rate 5 μg/cm^2 (=500 g/ha), after 48 hours, read-out: activity (efficacy: ticks dead or moribund)
# Protocol: Rhipicephalus sanguineus—In-Vitro Contact Tests with Adult Brown Dog Ticks
# as §1, with “mL” for “ml”
# (§2) After the solvent has evaporated, each test tube is filled with 5-10 adult brown dog ticks (Rhipicephalus sanguineus), closed with a perforated lid and incubated in a lying position at room temperature and relative humidity. After 48 hours efficacy is determined. The ticks are patted on the ground of the tubes and are incubated on a heating plate at 45-50° C. for at most 5 minutes. Immotile or uncoordinated moving ticks, which are not able to escape the heat by climbing upwards, are marked as dead or moribund.
# An efficacy of 100% means all ticks are dead or moribund; 0% means no ticks are dead or moribund.
# [4] = tested on: green peach aphid (Myzus persicae); assay: Myzus persicae oral test; conditions: 120 h, read-out: activity (mortality)
# Protocol: Solvent: 100 parts by weight acetone
# To produce a suitable preparation of active compound, 1 part by weight of active compound is mixed with the stated amount of solvent, and the concentrate is diluted with water to the desired concentration.
# 50 μL compound solution is filled in microtiter plates and 150 μL IPL41 insect medium (33%+15% sugar) is added to obtain a total volume of 200 μL per well. Afterwards the plates are sealed with parafilm through which a mixed population of the green peach aphid (Myzus persicae) can suck on the compound preparation.
# (§3) After 5 days mortality in % is determined. 100% means all aphids have been killed and 0% means none of the aphids have been killed.
# [5] = tested on: adult cat fleas (Ctenocephalides felis); assay: Ctenocephalides felis in-vitro contact test, adult cat flea; conditions: application rate 5 μg/cm^2 (=500 g/ha), after 48 hours, read-out: activity (efficacy: fleas dead or moribund)
# Protocol: Ctenocephalides felis—In-Vitro Contact Tests Adult Cat Flea
# as §1, with “mL” for “ml”
# as §2, with “cat fleas (Ctenocephalides felis),” for “brown dog ticks (Rhipicephalus sanguineus),”, “fleas” for “ticks”, “fleas,” for “ticks,”
# An efficacy of 100% means all fleas are dead or moribund; 0% means no fleas are dead or moribund.
# [6] = tested on: green peach aphid (Myzus persicae); assay: Myzus persicae spray test; conditions: foliar, 120 h, application rate 100 g/ha, after 5 days, Chinese cabbage leaf disks, read-out: activity (mortality)
# Protocol: Myzus persicae—Spray Test
# (§4) To produce a suitable preparation of active compound, 1 part by weight of active compound is mixed with the stated amount of solvents and is diluted with water, containing an emulsifier concentration of 1000 ppm, to the desired concentration. Further test concentrations are prepared by dilution with emulsifier containing water.
# Chinese cabbage (Brassica pekinensis) leaf disks infected with all instars of the green peach aphid (Myzus persicae), are sprayed with a preparation of the active ingredient of the desired concentration.
# as §3
# [7] = tested on: fall armyworm larvae (Spodoptera frugiperda); assay: Spodoptera frugiperda spray test; conditions: 168 h, application rate 100 g/ha, after 7 days, maize leaf sections
# Protocol: Spodoptera frugiperda—Spray Test
# as §4
# Maize (Zea mays) leaf sections are sprayed with a preparation of the active ingredient of the desired concentration. Once dry, the leaf sections are infested with fall armyworm larvae (Spodoptera frugiperda).
# After 7 days mortality in % is determined. 100% means all caterpillars have been killed and 0% means none of the caterpillars have been killed.
# [8] = tested on: larvae of the banded cucumber beetle (Diabrotica balteata); assay: Diabrotica balteata spray test; conditions: 168 h, application rate 100 g/ha (=32 μg/well), after 7 days, wheat seeds, read-out: activity (efficacy: seedlings grown)
# Protocol: Diabrotica balteata—Spray Test
# as §4, with “solvent,” for “solvents”, “and the concentrate” for “and”
# Soaked wheat seeds (Triticum aestivum) are placed in a multiple well plate filled with agar and some water and are incubated for 1 day to germinate (5 seeds per well). The germinated wheat seeds are sprayed with a test solution containing the desired concentration of the active ingredient. Afterwards each unit is infected with 10-20 larvae of the banded cucumber beetle (Diabrotica balteata).
# After 7 days efficacy in % is determined. 100% means all the seedlings have grown up like in the untreated, uninfected control; 0% means none of the seedlings have grown.
# [9] = tested on: larvae of the southern green stink bug (Nezara viridula); assay: Nezara viridula spray test; conditions: 96 h, after 4 days, barley plants; for mortality at 500 g/ha: application rate 500 g/ha, read-out: activity (mortality); for mortality at 100 g/ha: application rate 100 g/ha
# Protocol: Nezara viridula—Spray Test
# as §4, with “solvent,” for “solvents”, “and the concentrate” for “and”
# Barley plants (Hordeum vulgare) are sprayed with a test solution containing the desired concentration of the active ingredient and are infested with larvae of the southern green stink bug (Nezara viridula).
# After 4 days mortality in % is determined. 100% means all the stink bugs have been killed; 0% means none of the stink bugs have been killed.
compound,measurement,setting,value
C[C@H](NC(=O)c1cc(C(F)(F)F)cc(C(F)(F)F)c1)c1ncnn1-c1ccc(C(=O)N2CCC(O)CC2)cn1 [Example I-6],"pest or weed control at 1 µg/cm2, 100 g/ha",[1],90%
same,pest or weed control at 0.004 mg,[2],100%
same,"pest or weed control at 5 µg/cm2, 500 g/ha",[3],80%
same,mortality at 4 ppm,[4],100%
C[C@H](NC(=O)c1cc(C(F)(F)F)cc(C(F)(F)F)c1)c1ncnn1-c1ccc(C(=O)N2CCC2)cn1 [Example I-10],"pest or weed control at 1 µg/cm2, 100 g/ha",[1],100%
same,"pest or weed control at 5 µg/cm2, 500 g/ha",[1],100%
same,pest or weed control at 0.004 mg,[2],100%
same,pest or weed control at 5 µg/cm2,[5],100%
same,"pest or weed control at 5 µg/cm2, 500 g/ha",[3],100%
same,mortality at 4 ppm,[4],100%
same,mortality at 100 g/ha,[6],90%
same,mortality at 100 g/ha,[7],100%
"Cc1nc([C@H](C)NC(=O)c2cc(C(F)(F)F)cc(C(F)(F)F)c2)n(-c2ncc(C(=O)N3CCCC3)s2)n1 [Example I-16, N-[(1S)-1-{3-methyl-1-[5-(pyrrolidin-1-ylcarbonyl)-1,3-thiazol-2-yl]-1H-1,2,4-triazol-5-yl}ethyl]-3,5-bis(trifluoromethyl)benzamide]","pest or weed control at 1 µg/cm2, 100 g/ha",[1],100%
same,"pest or weed control at 5 µg/cm2, 500 g/ha",[1],100%
same,pest or weed control at 0.004 mg,[2],80%
same,"pest or weed control at 32 µg/disc, 100 g/ha",[8],100%
same,mortality at 4 ppm,[4],100%
same,mortality at 100 g/ha,[7],100%
Cc1nc([C@H](C)NC(=O)c2cc(Cl)cc(C(F)(F)F)c2)n(-c2ccc(C(=O)N3CC[C@H](O)C3)cn2)n1 [Example I-25],pest or weed control at 0.004 mg,[2],100%
same,mortality at 4 ppm,[4],100%
Cc1nc([C@H](C)NC(=O)c2cc(Cl)cc(C(F)(F)F)c2)n(-c2ccc(C(=O)N3CC[C@@H](O)C3)cn2)n1 [Example I-26],pest or weed control at 0.004 mg,[2],100%
same,mortality at 4 ppm,[4],100%
C[C@H](NC(=O)c1cc(Cl)cc(C(F)(F)F)c1)c1ncnn1-c1ccc(C(=O)N2CCCOCC2)cn1 [Example I-34],"pest or weed control at 1 µg/cm2, 100 g/ha",[1],100%
same,"pest or weed control at 5 µg/cm2, 500 g/ha",[1],100%
same,pest or weed control at 0.004 mg,[2],100%
same,"pest or weed control at 5 µg/cm2, 500 g/ha",[3],100%
CC1CCN(C(=O)c2ccc(-n3ncnc3[C@H](C)NC(=O)c3cc(Cl)cc(C(F)(F)F)c3)nc2)CC1 [Example I-38],pest or weed control at 0.004 mg,[2],100%
same,"pest or weed control at 5 µg/cm2, 500 g/ha",[3],80%
same,"pest or weed control at 32 µg/disc, 100 g/ha",[8],100%
C[C@H](NC(=O)c1cc(C(F)(F)F)cc(C(F)(F)F)c1)c1ncnn1-c1ccc(C(=O)N(C)C2CCN(C)CC2)cn1 [Example I-62],"pest or weed control at 32 µg/disc, 100 g/ha",[8],80%
same,mortality at 500 g/ha,[9],100%
C[C@H](NC(=O)c1cc(C(F)(F)F)cc(C(F)(F)F)c1)c1ncnn1-c1ccc(C(=O)N2CCNC(=O)C2)cn1 [Example I-65],mortality at 4 ppm,[4],100%
same,mortality at 100 g/ha,[9],90%
C[C@H](NC(=O)c1cc(Cl)cc(S(=O)(=O)C2CC2)c1)c1nc(C2CC2)nn1-c1ccc(C(=O)N2CCOCC2)cn1 [Example I-90],mortality at 500 g/ha,[9],100%
same,mortality at 100 g/ha,[7],100%
Cc1nc([C@H](C)NC(=O)c2cc(C(F)(F)F)cc(C(F)(F)F)c2)n(-c2ccc(C(=O)N3CCOCC3c3ncno3)cn2)n1 (stereo partly shown) [Example I-99],"pest or weed control at 1 µg/cm2, 100 g/ha",[1],100%
same,"pest or weed control at 5 µg/cm2, 500 g/ha",[1],100%
same,pest or weed control at 5 µg/cm2,[5],100%
same,"pest or weed control at 5 µg/cm2, 500 g/ha",[3],80%
same,mortality at 4 ppm,[4],100%
same,mortality at 100 g/ha,[6],90%
C[C@H](NC(=O)c1cc(OC(F)(F)F)cc(C2CC2)c1)c1ncnn1-c1ccc(N2CCOCC2)cn1 [Example I-104],"pest or weed control at 1 µg/cm2, 100 g/ha",[1],100%
same,"pest or weed control at 5 µg/cm2, 500 g/ha",[1],100%
same,pest or weed control at 5 µg/cm2,[5],90%
same,"pest or weed control at 32 µg/disc, 100 g/ha",[8],100%
same,mortality at 100 g/ha,[6],90%
Cc1nc([C@H](C)NC(=O)c2cc(C(F)(F)F)cc(C(F)(F)F)c2)n(-c2ncc(C(=O)N3C[C@@H](C)O[C@H](C)C3)s2)n1 [Example I-106],"pest or weed control at 1 µg/cm2, 100 g/ha",[1],100%
same,"pest or weed control at 5 µg/cm2, 500 g/ha",[1],100%
same,pest or weed control at 0.004 mg,[2],100%
same,"pest or weed control at 5 µg/cm2, 500 g/ha",[3],100%
same,"pest or weed control at 32 µg/disc, 100 g/ha",[8],100%
same,mortality at 4 ppm,[4],100%
same,mortality at 100 g/ha,[7],100%
C[C@H](NC(=O)c1cc(C(F)(F)F)cc(C(F)(F)F)c1)c1ncnn1-c1ccc(C(=O)N(C)C2CCOCC2)cn1 [Example I-110],"pest or weed control at 1 µg/cm2, 100 g/ha",[1],100%
same,"pest or weed control at 5 µg/cm2, 500 g/ha",[1],100%
same,pest or weed control at 5 µg/cm2,[5],100%
same,mortality at 4 ppm,[4],100%
same,mortality at 100 g/ha,[6],90%
same,mortality at 100 g/ha,[7],100%
C[C@H](NC(=O)c1cc(Cl)cc(S(C)(=O)=O)c1)c1ncnn1-c1ccc(C(=O)N2CCSCC2)cn1 [Example I-120],"pest or weed control at 32 µg/disc, 100 g/ha",[8],80%
same,mortality at 4 ppm,[4],100%
same,mortality at 100 g/ha,[9],90%
C[C@@H]1CN(C(=O)c2ccc(-n3ncnc3[C@H](C)NC(=O)c3cc(Cl)cc(S(C)(=O)=O)c3)nc2)C[C@@H](C)O1 [Example I-121],mortality at 4 ppm,[4],100%
same,mortality at 100 g/ha,[9],90%
same,mortality at 500 g/ha,[9],100%
CCc1nc([C@H](C)NC(=O)c2cc(Cl)cc(S(=O)(=O)C3CC3)c2)n(-c2ccc(C(=O)N3C[C@@H](C)O[C@@H](C)C3)cn2)n1 [Example I-133],mortality at 500 g/ha,[9],100%
same,mortality at 100 g/ha,[7],100%
